Data published in paper PMC6494879, “Drug resistance emergence in macaques administered cabotegravir long-acting for pre-exposure prophylaxis during acute SHIV infection” (Nature Communications, 2019).

tested on: SIV integrase I72T (SIV IN RTV pseudovirus); assay: organism not typed; type: cell-based; settings: HEK293

Row | Compound | EC50 [nM]
1 | Cc1nnc(C(=O)NC(C)(C)c2nc(C(=O)NCc3ccc(F)cc3)c(O)c(=O)n2C)o1 [RAL, raltegravir] | 2.73
2 | COc1cc2c(cc1Cc1cccc(Cl)c1F)c(=O)c(C(=O)O)cn2[C@H](CO)C(C)C [EVG, elvitegravir] | 1.17
3 | O=C(NCc1c(F)cc(F)cc1F)c1cn2c(c(O)c1=O)C(=O)N1[C@H]3CC[C@H](C3)O[C@@H]1C2 [BIC, bictegravir] | 1.51

same assay, conditions: {}

Row | Compound | fold-change relative to wild type integrase [fold]
4 | Cc1nnc(C(=O)NC(C)(C)c2nc(C(=O)NCc3ccc(F)cc3)c(O)c(=O)n2C)o1 [RAL, raltegravir] | 0.9
5 | COc1cc2c(cc1Cc1cccc(Cl)c1F)c(=O)c(C(=O)O)cn2[C@H](CO)C(C)C [EVG, elvitegravir] | 0.9
6 | O=C(NCc1c(F)cc(F)cc1F)c1cn2c(c(O)c1=O)C(=O)N1[C@H]3CC[C@H](C3)O[C@@H]1C2 [BIC, bictegravir] | 1.5

tested on: SIV integrase E92Q/G140R (SIV IN RTV pseudovirus); assay: not given; type: cell-based; settings: E92Q/G140R SIV integrase mutant

Row | Compound | fold-change relative to wild type integrase
7 | Cc1nnc(C(=O)NC(C)(C)c2nc(C(=O)NCc3ccc(F)cc3)c(O)c(=O)n2C)o1 [RAL, raltegravir] | > 345 fold
8 | COc1cc2c(cc1Cc1cccc(Cl)c1F)c(=O)c(C(=O)O)cn2[C@H](CO)C(C)C [EVG, elvitegravir] | > 807 fold
9 | O=C(NCc1c(F)cc(F)cc1F)c1cn2c(c(O)c1=O)C(=O)N1[C@H]3CC[C@H](C3)O[C@@H]1C2 [BIC, bictegravir] | >1000 (>1000) fold

tested on: SIV integrase WT (SIV IN RTV pseudovirus); assay: organism not typed; type: cell-based; settings: HEK293

Row | Compound | EC50 [nM]
10 | Cc1nnc(C(=O)NC(C)(C)c2nc(C(=O)NCc3ccc(F)cc3)c(O)c(=O)n2C)o1 [RAL, raltegravir] | 2.9
11 | COc1cc2c(cc1Cc1cccc(Cl)c1F)c(=O)c(C(=O)O)cn2[C@H](CO)C(C)C [EVG, elvitegravir] | 1.24
12 | O=C(NCc1c(F)cc(F)cc1F)c1cn2c(c(O)c1=O)C(=O)N1[C@H]3CC[C@H](C3)O[C@@H]1C2 [BIC, bictegravir] | 1

same assay, conditions: WT SIV integrase

Row | Compound | fold-change relative to wild type integrase [fold]
13 | Cc1nnc(C(=O)NC(C)(C)c2nc(C(=O)NCc3ccc(F)cc3)c(O)c(=O)n2C)o1 [RAL, raltegravir] | 1
14 | COc1cc2c(cc1Cc1cccc(Cl)c1F)c(=O)c(C(=O)O)cn2[C@H](CO)C(C)C [EVG, elvitegravir] | 1
15 | O=C(NCc1c(F)cc(F)cc1F)c1cn2c(c(O)c1=O)C(=O)N1[C@H]3CC[C@H](C3)O[C@@H]1C2 [BIC, bictegravir] | 1

tested on: SIV integrase A122T (SIV IN RTV pseudovirus); assay: organism not typed; type: cell-based; settings: HEK293

Row | Compound | EC50 [nM]
16 | Cc1nnc(C(=O)NC(C)(C)c2nc(C(=O)NCc3ccc(F)cc3)c(O)c(=O)n2C)o1 [RAL, raltegravir] | 4.13
17 | COc1cc2c(cc1Cc1cccc(Cl)c1F)c(=O)c(C(=O)O)cn2[C@H](CO)C(C)C [EVG, elvitegravir] | 1.15
18 | O=C(NCc1c(F)cc(F)cc1F)c1cn2c(c(O)c1=O)C(=O)N1[C@H]3CC[C@H](C3)O[C@@H]1C2 [BIC, bictegravir] | 2.1

same assay, conditions: {}

Row | Compound | fold-change relative to wild type integrase [fold]
19 | Cc1nnc(C(=O)NC(C)(C)c2nc(C(=O)NCc3ccc(F)cc3)c(O)c(=O)n2C)o1 [RAL, raltegravir] | 1.4
20 | COc1cc2c(cc1Cc1cccc(Cl)c1F)c(=O)c(C(=O)O)cn2[C@H](CO)C(C)C [EVG, elvitegravir] | 0.9
21 | O=C(NCc1c(F)cc(F)cc1F)c1cn2c(c(O)c1=O)C(=O)N1[C@H]3CC[C@H](C3)O[C@@H]1C2 [BIC, bictegravir] | 2.1

tested on: SIV integrase Q124R (SIV IN RTV pseudovirus); assay: organism not typed; type: cell-based; settings: HEK293

Row | Compound | EC50 [nM]
22 | Cc1nnc(C(=O)NC(C)(C)c2nc(C(=O)NCc3ccc(F)cc3)c(O)c(=O)n2C)o1 [RAL, raltegravir] | 4.6
23 | COc1cc2c(cc1Cc1cccc(Cl)c1F)c(=O)c(C(=O)O)cn2[C@H](CO)C(C)C [EVG, elvitegravir] | 1.59
24 | O=C(NCc1c(F)cc(F)cc1F)c1cn2c(c(O)c1=O)C(=O)N1[C@H]3CC[C@H](C3)O[C@@H]1C2 [BIC, bictegravir] | 1.49

same assay, conditions: {}

Row | Compound | fold-change relative to wild type integrase [fold]
25 | Cc1nnc(C(=O)NC(C)(C)c2nc(C(=O)NCc3ccc(F)cc3)c(O)c(=O)n2C)o1 [RAL, raltegravir] | 1.6
26 | COc1cc2c(cc1Cc1cccc(Cl)c1F)c(=O)c(C(=O)O)cn2[C@H](CO)C(C)C [EVG, elvitegravir] | 1.3
27 | O=C(NCc1c(F)cc(F)cc1F)c1cn2c(c(O)c1=O)C(=O)N1[C@H]3CC[C@H](C3)O[C@@H]1C2 [BIC, bictegravir] | 1.5

tested on: HIV integrase G140S/A/C; assay: not given; settings: cited from earlier work

Row | Compound | fold reduced susceptibility of HIV with G140S/A/C
28 | Cc1nnc(C(=O)NC(C)(C)c2nc(C(=O)NCc3ccc(F)cc3)c(O)c(=O)n2C)o1 [RAL, raltegravir] | 10-100 fold
29 | COc1cc2c(cc1Cc1cccc(Cl)c1F)c(=O)c(C(=O)O)cn2[C@H](CO)C(C)C [EVG, elvitegravir] | 10-100 fold

tested on: SIV integrase I250V (SIV IN RTV pseudovirus); assay: organism not typed; type: cell-based; settings: HEK293

Row | Compound | EC50 [nM]
30 | Cc1nnc(C(=O)NC(C)(C)c2nc(C(=O)NCc3ccc(F)cc3)c(O)c(=O)n2C)o1 [RAL, raltegravir] | 4
31 | COc1cc2c(cc1Cc1cccc(Cl)c1F)c(=O)c(C(=O)O)cn2[C@H](CO)C(C)C [EVG, elvitegravir] | 1.45
32 | O=C(NCc1c(F)cc(F)cc1F)c1cn2c(c(O)c1=O)C(=O)N1[C@H]3CC[C@H](C3)O[C@@H]1C2 [BIC, bictegravir] | 1.56

same assay, conditions: {}

Row | Compound | fold-change relative to wild type integrase [fold]
33 | Cc1nnc(C(=O)NC(C)(C)c2nc(C(=O)NCc3ccc(F)cc3)c(O)c(=O)n2C)o1 [RAL, raltegravir] | 1.4
34 | COc1cc2c(cc1Cc1cccc(Cl)c1F)c(=O)c(C(=O)O)cn2[C@H](CO)C(C)C [EVG, elvitegravir] | 1.2
35 | O=C(NCc1c(F)cc(F)cc1F)c1cn2c(c(O)c1=O)C(=O)N1[C@H]3CC[C@H](C3)O[C@@H]1C2 [BIC, bictegravir] | 1.6

tested on: SIV integrase G118R (SIV IN RTV pseudovirus); assay: not given; type: cell-based; settings: G118R SIV integrase mutant

Row | Compound | fold-change relative to wild type integrase
36 | Cc1nnc(C(=O)NC(C)(C)c2nc(C(=O)NCc3ccc(F)cc3)c(O)c(=O)n2C)o1 [RAL, raltegravir] | > 345 fold
37 | COc1cc2c(cc1Cc1cccc(Cl)c1F)c(=O)c(C(=O)O)cn2[C@H](CO)C(C)C [EVG, elvitegravir] | > 807 fold
38 | O=C(NCc1c(F)cc(F)cc1F)c1cn2c(c(O)c1=O)C(=O)N1[C@H]3CC[C@H](C3)O[C@@H]1C2 [BIC, bictegravir] | >1000 (>1000) fold

tested on: SIV integrase E92G (SIV IN RTV pseudovirus); assay: not given; settings: not given

Row | Compound | EC50 [nM] | fold-change relative to wild type integrase [fold]
39 | Cc1nnc(C(=O)NC(C)(C)c2nc(C(=O)NCc3ccc(F)cc3)c(O)c(=O)n2C)o1 [RAL, raltegravir] | 8.07 | 2.8
40 | COc1cc2c(cc1Cc1cccc(Cl)c1F)c(=O)c(C(=O)O)cn2[C@H](CO)C(C)C [EVG, elvitegravir] | 4.53 | 3.7
41 | O=C(NCc1c(F)cc(F)cc1F)c1cn2c(c(O)c1=O)C(=O)N1[C@H]3CC[C@H](C3)O[C@@H]1C2 [BIC, bictegravir] | 4.29 | 4.3

tested on: SIV integrase E92Q (SIV IN RTV pseudovirus); assay: not given; type: cell-based; settings: E92Q SIV integrase mutant

Row | Compound | fold-change relative to wild type integrase [fold]
42 | Cc1nnc(C(=O)NC(C)(C)c2nc(C(=O)NCc3ccc(F)cc3)c(O)c(=O)n2C)o1 [RAL, raltegravir] | 3.6
43 | COc1cc2c(cc1Cc1cccc(Cl)c1F)c(=O)c(C(=O)O)cn2[C@H](CO)C(C)C [EVG, elvitegravir] | 7.8
44 | O=C(NCc1c(F)cc(F)cc1F)c1cn2c(c(O)c1=O)C(=O)N1[C@H]3CC[C@H](C3)O[C@@H]1C2 [BIC, bictegravir] | 2.0

tested on: SIV integrase I110V (SIV IN RTV pseudovirus); assay: organism not typed; type: cell-based; settings: HEK293

Row | Compound | EC50 [nM]
45 | Cc1nnc(C(=O)NC(C)(C)c2nc(C(=O)NCc3ccc(F)cc3)c(O)c(=O)n2C)o1 [RAL, raltegravir] | 3.8
46 | COc1cc2c(cc1Cc1cccc(Cl)c1F)c(=O)c(C(=O)O)cn2[C@H](CO)C(C)C [EVG, elvitegravir] | 1.55
47 | O=C(NCc1c(F)cc(F)cc1F)c1cn2c(c(O)c1=O)C(=O)N1[C@H]3CC[C@H](C3)O[C@@H]1C2 [BIC, bictegravir] | 1.78

same assay, conditions: {}

Row | Compound | fold-change relative to wild type integrase [fold]
48 | Cc1nnc(C(=O)NC(C)(C)c2nc(C(=O)NCc3ccc(F)cc3)c(O)c(=O)n2C)o1 [RAL, raltegravir] | 1.3
49 | COc1cc2c(cc1Cc1cccc(Cl)c1F)c(=O)c(C(=O)O)cn2[C@H](CO)C(C)C [EVG, elvitegravir] | 1.3
50 | O=C(NCc1c(F)cc(F)cc1F)c1cn2c(c(O)c1=O)C(=O)N1[C@H]3CC[C@H](C3)O[C@@H]1C2 [BIC, bictegravir] | 1.8

tested on: SIV integrase G118R/A122T (SIV IN RTV pseudovirus); assay: not given; type: cell-based; settings: G118R/A122T SIV integrase mutant

Row | Compound | fold-change relative to wild type integrase
51 | Cc1nnc(C(=O)NC(C)(C)c2nc(C(=O)NCc3ccc(F)cc3)c(O)c(=O)n2C)o1 [RAL, raltegravir] | > 345 fold
52 | COc1cc2c(cc1Cc1cccc(Cl)c1F)c(=O)c(C(=O)O)cn2[C@H](CO)C(C)C [EVG, elvitegravir] | > 807 fold
53 | O=C(NCc1c(F)cc(F)cc1F)c1cn2c(c(O)c1=O)C(=O)N1[C@H]3CC[C@H](C3)O[C@@H]1C2 [BIC, bictegravir] | >1000 (>1000) fold

tested on: SIV integrase G140R (SIV IN RTV pseudovirus); assay: organism not typed; type: cell-based; settings: HEK293

Row | Compound | EC50 [nM]
54 | Cc1nnc(C(=O)NC(C)(C)c2nc(C(=O)NCc3ccc(F)cc3)c(O)c(=O)n2C)o1 [RAL, raltegravir] | > 1000
55 | COc1cc2c(cc1Cc1cccc(Cl)c1F)c(=O)c(C(=O)O)cn2[C@H](CO)C(C)C [EVG, elvitegravir] | > 1000
56 | O=C(NCc1c(F)cc(F)cc1F)c1cn2c(c(O)c1=O)C(=O)N1[C@H]3CC[C@H](C3)O[C@@H]1C2 [BIC, bictegravir] | > 1000

same assay, conditions: {}

Row | Compound | fold-change relative to wild type integrase
57 | Cc1nnc(C(=O)NC(C)(C)c2nc(C(=O)NCc3ccc(F)cc3)c(O)c(=O)n2C)o1 [RAL, raltegravir] | > 345 fold
58 | COc1cc2c(cc1Cc1cccc(Cl)c1F)c(=O)c(C(=O)O)cn2[C@H](CO)C(C)C [EVG, elvitegravir] | > 807 fold
59 | O=C(NCc1c(F)cc(F)cc1F)c1cn2c(c(O)c1=O)C(=O)N1[C@H]3CC[C@H](C3)O[C@@H]1C2 [BIC, bictegravir] | >1000 (>1000) fold
